Among the data in patent US8765959B2, “Piperidine derivatives” (Boehringer Ingelheim International GmbH, priority 2011, dated 2014) are IC50 values, retold here.

Each structure is given as a SMILES string.

T1 sequence (O00763 129-2458 limits assumed): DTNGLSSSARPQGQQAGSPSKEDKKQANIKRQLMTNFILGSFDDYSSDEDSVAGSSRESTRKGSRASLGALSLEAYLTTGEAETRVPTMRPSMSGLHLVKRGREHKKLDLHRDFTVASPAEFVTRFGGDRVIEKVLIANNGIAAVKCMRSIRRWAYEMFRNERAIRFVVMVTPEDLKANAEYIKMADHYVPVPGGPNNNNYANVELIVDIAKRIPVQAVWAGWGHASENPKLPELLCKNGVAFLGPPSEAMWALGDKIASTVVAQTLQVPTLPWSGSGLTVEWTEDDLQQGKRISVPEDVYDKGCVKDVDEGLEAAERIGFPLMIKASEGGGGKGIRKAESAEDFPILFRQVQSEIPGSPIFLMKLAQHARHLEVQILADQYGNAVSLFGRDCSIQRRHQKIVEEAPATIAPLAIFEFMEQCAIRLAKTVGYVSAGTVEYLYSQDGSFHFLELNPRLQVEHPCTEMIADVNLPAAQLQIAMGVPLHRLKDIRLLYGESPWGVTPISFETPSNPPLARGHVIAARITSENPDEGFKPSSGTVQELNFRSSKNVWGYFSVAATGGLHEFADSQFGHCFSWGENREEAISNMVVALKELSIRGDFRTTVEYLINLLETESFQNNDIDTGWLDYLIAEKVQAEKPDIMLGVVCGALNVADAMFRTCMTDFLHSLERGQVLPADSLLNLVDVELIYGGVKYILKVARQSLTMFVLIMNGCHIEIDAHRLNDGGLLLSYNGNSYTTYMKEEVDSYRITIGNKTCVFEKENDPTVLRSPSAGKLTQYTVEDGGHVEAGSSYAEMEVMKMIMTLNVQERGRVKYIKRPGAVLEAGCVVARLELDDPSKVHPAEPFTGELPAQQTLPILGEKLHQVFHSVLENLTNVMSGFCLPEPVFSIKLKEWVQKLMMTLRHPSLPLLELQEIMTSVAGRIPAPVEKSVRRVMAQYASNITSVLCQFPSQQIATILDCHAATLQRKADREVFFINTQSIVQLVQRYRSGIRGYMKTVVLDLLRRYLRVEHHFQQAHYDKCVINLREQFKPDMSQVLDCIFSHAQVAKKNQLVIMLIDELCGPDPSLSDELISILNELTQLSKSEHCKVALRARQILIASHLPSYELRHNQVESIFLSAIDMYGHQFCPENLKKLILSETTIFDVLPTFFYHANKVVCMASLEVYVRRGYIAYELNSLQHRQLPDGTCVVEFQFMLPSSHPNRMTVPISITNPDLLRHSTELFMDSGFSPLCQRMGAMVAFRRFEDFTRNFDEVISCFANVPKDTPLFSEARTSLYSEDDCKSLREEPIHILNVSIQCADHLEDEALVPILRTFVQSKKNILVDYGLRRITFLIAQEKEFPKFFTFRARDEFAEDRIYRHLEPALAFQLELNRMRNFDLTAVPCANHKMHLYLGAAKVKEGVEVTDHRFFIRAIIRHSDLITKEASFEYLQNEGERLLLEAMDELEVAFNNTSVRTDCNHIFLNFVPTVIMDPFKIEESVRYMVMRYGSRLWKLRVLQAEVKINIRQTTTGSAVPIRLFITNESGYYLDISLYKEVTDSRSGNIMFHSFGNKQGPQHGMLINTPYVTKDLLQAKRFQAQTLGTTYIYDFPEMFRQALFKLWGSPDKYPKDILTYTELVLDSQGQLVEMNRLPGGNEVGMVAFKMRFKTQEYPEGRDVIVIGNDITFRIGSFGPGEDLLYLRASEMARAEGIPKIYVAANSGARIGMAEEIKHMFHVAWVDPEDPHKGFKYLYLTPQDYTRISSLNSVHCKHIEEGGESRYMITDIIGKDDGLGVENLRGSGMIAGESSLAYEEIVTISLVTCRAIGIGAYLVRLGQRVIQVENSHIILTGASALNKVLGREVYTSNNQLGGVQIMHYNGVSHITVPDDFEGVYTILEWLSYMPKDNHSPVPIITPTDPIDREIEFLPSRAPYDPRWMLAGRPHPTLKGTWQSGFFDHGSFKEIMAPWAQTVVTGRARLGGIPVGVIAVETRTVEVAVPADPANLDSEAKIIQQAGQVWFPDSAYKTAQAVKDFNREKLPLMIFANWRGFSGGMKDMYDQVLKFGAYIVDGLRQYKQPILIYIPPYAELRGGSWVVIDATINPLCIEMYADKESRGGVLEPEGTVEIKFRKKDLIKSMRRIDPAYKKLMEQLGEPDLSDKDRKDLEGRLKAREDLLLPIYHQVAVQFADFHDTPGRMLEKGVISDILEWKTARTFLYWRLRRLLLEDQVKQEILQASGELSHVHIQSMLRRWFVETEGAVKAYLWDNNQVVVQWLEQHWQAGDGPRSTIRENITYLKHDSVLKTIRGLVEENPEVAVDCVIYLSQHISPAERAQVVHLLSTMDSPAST

The first test has as its target T1, human ACC2 (Homo sapiens, UniProt O00763).
T1 construct: made in house; host or cells: insect cells (baculoviral expression system)
Put plainly: ACC2 assay, spectrophotometric 384 well assay (NADH-linked, coupled lactate dehydrogenase/pyruvate kinase). Format: biochemical.
Settings: not given
Here is the method:
Spectrophotometric 384 Well Assay
Malonyl CoA formation by acetyl CoA carboxylases is stoichometrically linked to the consumption of ATP. ACC2 activity is measured in a NADH-linked kinetic method measuring ADP generated during the ACC reaction using a coupled lactate dehydrogenase/pyruvate kinase reaction.
For biological testing, a human ACC2 construct which lacks the 128 amino acids at the N-terminus for increased solubility (nt 385-6966 in Genbank entry AJ575592) is cloned. The protein is then expressed in insect cells using a baculoviral expression system. Protein purification is performed by anion exchange.
All compounds are dissolved in dimethyl sulfoxide (DMSO) to a concentration of 10 mM.
Assay reactions are then carried out in 384-well plates, with hACC2 in an appropriate dilution and at final assay concentrations (f.c.) of 100 mM Tris (pH 7.5), 10 mM trisodium citrate, 25 mM KHCO3, 10 mM MgCl2, 0.5 mg/ml BSA, 3.75 mM reduced L-glutathione, 15 U/ml lactate dehydrogenase, 0.5 mM phosphoenolpyruvate, 15 U/ml pyruvate kinase, compounds at different concentrations at final DMSO concentrations of 1%.
The enzymatic reaction is then started by addition of a mixture of NADH, acetyl Coenzyme A (both 200 μM f.c.) and ATP (500 uM f.c.). The decrease of the optical density (slope S) is then determined at 25° C. at a wavelength of 340 nm over 15 minutes in a spectrophotometric reader.
Each assay microtiter plate contains wells with vehicle instead of compound as controls for the non-inhibited enzyme (100% CTL; ‘HIGH’) and wells without acetyl-CoA as controls for non-specific NADH degradation (0% CTL; ‘LOW’).
The slope S is used for calculation of % CTL=(S(compound)−S(‘LOW’))/(S(‘HIGH’)−S(‘LOW’))*100. Compounds will give values between 100% CTL (no inhibition) and 0% CTL (complete inhibition).
For IC50 value determination, the sample slope in the presence of the test compound after subtraction of the low controls (S(compound)−S(‘LOW’)) are used.
An IC50 value is derived from the compound slopes at different dosages after subtraction of the low controls (S(compound)−S(‘LOW’)) by non-linear regression curve fitting (equation y=(A+((B−A)/(1+((C/x)^D))))).
Usually IC50 stands for the point on the concentration scale where inhibition reaches its midpoint. Compound `CCOc1ccc(C2CCN(c3ccc([C@H](C)NC(=O)CF)cc3)CC2)cc1` [Example 3.8] had an IC50 of 440 nM.

Still in this test, the particulars now being: ACC2 assay; human ACC2 construct lacking 128 N-terminal amino acids; 25° C., 340 nm, 15 minutes; read-out: IC50.
For `CCCOc1ccc(C2CCN(c3ccc([C@H](C)NC(C)=O)cc3)CC2)cc1` [Example 1.1, (S)—N-(1-{4-[4-(4-Propoxy-phenyl)-piperidin-1-yl]-phenyl}-ethyl)-acetamide], the IC50 stood at 70 nM. Still for that read-out and setting: the result for `CCOc1ccc(C2CCN(c3ccc([C@H](C)NC(C)=O)cc3)CC2)cc1` [Example 1.2] reads 150 nM. As for `CCCOc1ccc(C2CCN(c3ccc([C@H](C)NC(C)=O)cc3)CC2)c(C)c1` [Example 1.3], the IC50 was 50 nM. Still for that read-out and setting: with `CC(=O)N[C@@H](C)c1ccc(N2CCC(c3ccc(OC4CCC4)cc3)CC2)cc1` [Example 1.4] the figure was 230 nM. Same read-out and setting: with `CC(=O)N[C@@H](C)c1ccc(N2CCC(c3cccc(OCC4CC4)c3)CC2)cc1` [Example 1.5] the figure was 880 nM; with `CCOc1cccc(C2CCN(c3ccc([C@H](C)NC(C)=O)cc3)CC2)c1` [Example 1.6], 1120 nM.

Regarding `CC(=O)N[C@@H](C)c1ccc(N2CCC(c3ccc(OCC4CC4(F)F)cc3)CC2)cc1` (stereo partly shown) [Example 1.7], the IC50 was determined as 90 nM. Same read-out and setting: the result for `CCOc1ccc(C2CCN(c3ccc([C@H](C)NC(=O)C4CC4)cc3)CC2)cc1` [Example 1.8] reads 680 nM; that for `CC(C)Oc1ccc(C2CCN(c3ccc([C@H](C)NC(=O)N(C)C)cc3)CC2)cc1` [Example 1.9], 610 nM. Same read-out and setting: the result for `CC(C)Oc1ccc(C2CCN(c3ccc([C@H](C)NC(=O)C4CC4)cc3)CC2)cc1` [Example 1.10] reads 800 nM; that for `CCOc1ccc(C2CCN(c3ccc([C@H](C)NC(C)=O)cc3)CC2)c(OC)c1` [Example 1.11], 440 nM.

Take `CCOc1ccc(C2CCN(c3ccc([C@H](C)NC(C)=O)cc3)CC2)cn1` [Example 1.12]: the IC50 was determined as 3170 nM.

Consider `CC(=O)N[C@@H](C)c1ccc(N2CCC(c3cccc(OC4CCC4)c3)CC2)cc1` [Example 1.14], for which the IC50 came out at 450 nM. On to `C[C@H](NC(=O)C1CC1)c1ccc(N2CCC(c3ccc(OCC4CC4)cc3)CC2)cc1` [Example 1.15], for which the IC50 worked out at 1850 nM.

Consider `C[C@H](NC(=O)C1CC1)c1ccc(N2CCC(c3ccc(OC4CCC4)cc3)CC2)cc1` [Example 1.16], for which the IC50 was 1240 nM.

Consider `CCOc1ccc(C2CCN(c3ccc([C@H](C)NC(=O)N(C)C)cc3)CC2)cc1` [Example 1.17], for which the IC50 is 820 nM.

For `CCOc1cc(C2CCN(c3ccc([C@H](C)NC(C)=O)cc3)CC2)ccn1` [Example 1.19], the IC50 came to 820 nM. In the case of `CCCOc1cccc(C2CCN(c3ccc([C@H](C)NC(C)=O)cc3)CC2)c1` [Example 1.20], the IC50 is 660 nM.

For the compound `CCCOc1ccc(C2CCN(c3ccc([C@H](C)NC(=O)C4CC4)cc3)CC2)cc1` [Example 1.21], the IC50 was determined as 640 nM. In the case of `C[C@H](NC(=O)N(C)C)c1ccc(N2CCC(c3ccc(OC4CCC4)cc3)CC2)cc1` [Example 1.22], the IC50 worked out at 250 nM. Consider `C[C@H](NC(=O)N(C)C)c1ccc(N2CCC(c3ccc(OCC4CC4)cc3)CC2)cc1` [Example 1.24], for which the IC50 turned out to be 540 nM.

Regarding `CC(=O)N[C@@H](C)c1ccc(N2CCC(c3cccc(OC(C)C)c3)CC2)cc1` [Example 1.25], the IC50 stood at 370 nM. On the same count and under the same terms, with `CCCOc1ccc(C2CCN(c3ccc([C@H](C)NC(=O)N(C)C)cc3)CC2)cc1` [Example 1.26] the figure was 340 nM; with `COc1ccc(C2CCN(c3ccc([C@H](C)NC(C)=O)cc3)CC2)cc1` [Example 1.27], 2160 nM. Turning to `CC(=O)NC(C)c1ccc(N2CCC(c3ccc(OCC4CC4)cc3F)CC2)c(F)c1` (stereo not shown) [Example 1.31], the IC50 was determined as 150 nM. As for `CCCOc1ccc(C2CCN(c3ccc(C(C)NC(C)=O)cc3F)CC2)cc1` (stereo not shown) [Example 1.32], the IC50 was found to be 230 nM. The same measure, in the same setting: the result for `CC(=O)NC(C)c1ccc(N2CCC(c3ccc(OC(C)C)cc3)CC2)c(F)c1` (stereo not shown) [Example 1.33] reads 460 nM; that for `CCOc1cccc(C2CCN(c3ccc(C(C)NC(C)=O)c(F)c3)CC2)c1` (stereo not shown) [Example 1.41], 1270 nM; that for `CC(=O)NC(C)c1ccc(N2CCC(c3cccc(OC(C)C)c3)CC2)cc1F` (stereo not shown) [Example 1.42], 1260 nM. Consider `CCCOc1ccc(C2CCN(c3ccc(C(C)NC(C)=O)c(F)c3)CC2)c(C)c1` (stereo not shown) [Example 1.44], for which the IC50 amounted to 160 nM. The same measure, in the same setting: the result for `CCOc1ccc(C2CCN(c3ccc(C(C)NC(C)=O)c(F)c3)CC2)cc1` (stereo not shown) [Example 1.45] reads 350 nM.

Regarding `CC(=O)NC(C)c1ccc(N2CCC(c3ccc(OC(C)C)cc3)CC2)cc1F` (stereo not shown) [Example 1.46], the IC50 worked out at 370 nM. On the same count and under the same terms, the result for `CC(=O)NC(C)c1ccc(N2CCC(c3cccc(OC4CCC4)c3)CC2)cc1F` (stereo not shown) [Example 1.47] reads 430 nM; that for `CC(=O)NC(C)c1ccc(N2CCC(c3ccc(OCC4CC4)cc3F)CC2)cc1F` (stereo not shown) [Example 1.48], 460 nM; that for `COc1cc(C(C)NC(C)=O)ccc1N1CCC(c2ccc(OC3CCC3)cc2)CC1` (stereo not shown) [Example 1.51], 4410 nM. Same read-out and setting: with `CCCOc1ccc(C2CCN(c3ccc(C(C)NC(C)=O)cc3OC)CC2)cc1` (stereo not shown) [Example 1.52] the figure was 4230 nM; with `CCOc1ccc(C2CCN(c3ccc(CC(C)NC(C)=O)cc3)CC2)cc1` (stereo not shown) [Example 1.60], 1220 nM. In the case of `COc1ccc(C2CCN(c3ccc(CC(C)NC(C)=O)cc3)CC2)cc1` (stereo not shown) [Example 1.61], the IC50 is 4470 nM.

In the case of `CCOc1ccc(C2CCN(c3ccc(CCC(C)NC(C)=O)cc3)CC2)cc1` (stereo not shown) [Example 1.70], the IC50 was 8470 nM. Still for that read-out and setting: the result for `CCOc1ccc(C2CCN(c3ccc([C@H](C)NC(=O)C4(C#N)CC4)cc3)CC2)cc1` [Example 2.1, (S)-1-Cyano-cyclopropanecarboxylic acid (1-{4-[4-(4-ethoxy-phenyl)-piperidin-1-yl]-phenyl}-ethyl)-amide] reads 4150 nM; that for `CCOc1ccc(C2CCN(c3ccc([C@H](C)NC(=O)c4cncs4)cc3)CC2)cc1` [Example 2.2], 690 nM; that for `CCOc1ccc(C2CCN(c3ccc([C@H](C)NC(=O)CSC)cc3)CC2)cc1` [Example 2.3], 1210 nM. The same measure, in the same setting: with `CCOc1ccc(C2CCN(c3ccc([C@H](C)NC(=O)CC)cc3)CC2)cc1` [Example 2.4] the figure was 710 nM; with `CCOc1ccc(C2CCN(c3ccc([C@H](C)NC(=O)COC)cc3)CC2)cc1` [Example 2.5], 6910 nM. In the case of `CCOc1ccc(C2CCN(c3ccc([C@H](C)NC(=O)C(F)(F)F)cc3)CC2)cc1` [Example 2.6], the IC50 was 110 nM. Take `CCOc1ccc(C2CCN(c3ccc([C@H](C)NC(=O)C4(C)CC4)cc3)CC2)cc1` [Example 2.7]: the IC50 was 520 nM. On the same count and under the same terms, the result for `CCOc1ccc(C2CCN(c3ccc([C@H](C)NC(=O)c4coc(NC(C)=O)n4)cc3)CC2)cc1` [Example 3.1, (S)-2-Acetylamino-oxazole-4-carboxylic acid (1-{4-[4-(4-ethoxy-phenyl)-piperidin-1-yl]-phenyl}-ethyl)-amide] reads 2770 nM; that for `CCOc1ccc(C2CCN(c3ccc([C@H](C)NC(=O)C(F)F)cc3)CC2)cc1` [Example 3.2], 380 nM. For the compound `CCOc1ccc(C2CCN(c3ccc([C@H](C)NC(=O)C(C)F)cc3)CC2)cc1` (stereo partly shown) [Example 3.3], the IC50 was determined as 760 nM. As for `CCOc1ccc(C2CCN(c3ccc([C@H](C)NC(=O)Cc4cc[nH]c4)cc3)CC2)cc1` [Example 3.4], the IC50 was 4880 nM.

Take `CCOc1ccc(C2CCN(c3ccc([C@H](C)NC(=O)c4cncc(NC(C)=O)c4)cc3)CC2)cc1` [Example 3.5]: the IC50 was determined as 4530 nM. On to `CCOc1ccc(C2CCN(c3ccc([C@H](C)NC(=O)c4sc(NC(C)=O)nc4C)cc3)CC2)cc1` [Example 3.6], for which the IC50 was 200 nM. Still for that read-out and setting: the result for `CCOc1ccc(C2CCN(c3ccc([C@H](C)NC(=O)c4csc(NC(C)=O)n4)cc3)CC2)cc1` [Example 3.7] reads 1480 nM; that for `CCOc1ccc(C2CCN(c3ccc([C@H](C)NC(=O)CO)cc3)CC2)cc1` [Example 3.9], 4980 nM; that for `CCOc1ccc(C2CCN(c3ccc([C@H](C)NC(=O)N(C)CC)cc3)CC2)cc1` [Example 4.1, (S)-3-(1-{4-[4-(4-Ethoxy-phenyl)-piperidin-1-yl]-phenyl}-ethyl)-1-ethyl-1-methyl-urea], 1980 nM. `CCOc1ccc(C2CCN(c3ccc([C@H](C)NC(=O)N(C)c4cccnc4)cc3)CC2)cc1` [Example 4.2]: the IC50 is 1160 nM. Still for that read-out and setting: the result for `CCOc1ccc(C2CCN(c3ccc([C@H](C)NC(=O)N4CCOCC4)cc3)CC2)cc1` [Example 4.3] reads 2360 nM.
